Reference: patent US6303630A, “Diarylsulfone non-nucleoside reverse transcriptase inhibitors of human immunodeficiency virus” (University of the Sciences in Philadelphia, priority 2000, dated 2001)

Assays:
HIV-1 [1] = details: in vitro, McMahon et al. 1993; cited from earlier work
[2] = tested on: HIV-1 reverse transcriptase; details: McMahon et al. 1993; cited from earlier work
HIV-1 [3] = details: Artico et al. 1995; cited from earlier work
HIV-1 [4] = test: NCI in vitro anti-HIV drug screen: XTT-formazan assay, protection of T4 lymphocytes (CEM) from HIV-1 cytopathic effects; type: cell-based, human immunodeficiency virus (HIV-1)
Procedure, shortened: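 CEM T4 lymphocytes with serial half-log10 compound dilutions were infected with HIV-1 and incubated 6 days at 37° in 5% CO2. Cell protection from cytolysis was quantified by XTT formazan absorbance, with microscopic confirmation, against uninfected drug-treated toxicity controls.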

[5] = tested on: T4 lymphocytes (CEM cell line); test: Cell growth / toxicity control in uninfected T4 lymphocytes (CEM), XTT-formazan; type: cell-based; details: Homo sapiens, CCRF-CEM
Procedure, shortened: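 Uninfected CEM T4 lymphocytes received compound in half-log10 dilutions (1:200 final dilution of DMSO solution) as toxicity control alongside HIV-1-infected cultures. After 6 days at 37° in 5% CO2, viability was quantified by XTT formazan absorbance plus microscopy.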

O=[N+]([O-])c1ccccc1S(=O)(=O)c1ccccc1 [2-nitrophenyl phenylsulfone]
protecting human cells in culture from HIV-1 cytopathic effects / preventing HIV-1 replication (HIV-1 [1]): high efficacy
inhibition of HIV-1 replication via inhibition of HIV-1 reverse transcriptase [2]: inhibition of HIV-1 replication via inhibition of HIV-1 reverse transcriptase

CCOC(=O)c1cccn1S(=O)(=O)c1ccccc1[N+](=O)[O-]
anti-HIV-1 efficacy (HIV-1 [3]): the most efficacy

CNc1c(Cl)cccc1S(=O)(=O)c1ccccc1[N+](=O)[O-] [Compound 78, 2-(2-nitrophenylsulfonyl)-6-chloro-N-methylaniline]
EC50 (HIV-1 [4]; Human immunodeficiency virus 1, CCRF-CEM, 144 h, HIV-1 infected CEM cells, 6 days, XTT, approximate values, read-out: EC50 (50% effective concentration against HIV cytopathic effects)): 0.22 µM
inhibition at 20 µM (HIV-1 [4]; Human immunodeficiency virus 1, CCRF-CEM, dose 2.00 × 10^-5 Molar, read-out: Percent of Protection): 89.5%
inhibition at 2 µM (HIV-1 [4]; Human immunodeficiency virus 1, CCRF-CEM, dose 2.00 × 10^-6 Molar, read-out: Percent of Protection): 93.9%
inhibition at 0.2 µM (HIV-1 [4]; Human immunodeficiency virus 1, CCRF-CEM, dose 2.00 × 10^-7 Molar, read-out: Percent of Protection): 45.9%
inhibition at 0.02 µM (HIV-1 [4]; Human immunodeficiency virus 1, CCRF-CEM, dose 2.00 × 10^-8 Molar, read-out: Percent of Protection): 8.88%
inhibition at 6.32 µM (HIV-1 [4]; Human immunodeficiency virus 1, CCRF-CEM, dose 6.32 × 10^-6 Molar, read-out: Percent of Protection): 96%
inhibition at 0.633 µM (HIV-1 [4]; Human immunodeficiency virus 1, CCRF-CEM, dose 6.33 × 10^-7 Molar, read-out: Percent of Protection): 100%
inhibition at 0.0634 µM (HIV-1 [4]; Human immunodeficiency virus 1, CCRF-CEM, dose 6.34 × 10^-8 Molar, read-out: Percent of Protection): 12.2%
inhibition at 0.00635 µM (HIV-1 [4]; Human immunodeficiency virus 1, CCRF-CEM, dose 6.35 × 10^-9 Molar, read-out: Percent of Protection): 2.69%
activity at 20 µM (HIV-1 [4]; Human immunodeficiency virus 1, Lymphocyte, dose 2.00 × 10^-5 Molar, read-out: Percent of Control, Infected): 89.8%
activity at 2 µM (HIV-1 [4]; Human immunodeficiency virus 1, Lymphocyte, dose 2.00 × 10^-6 Molar, read-out: Percent of Control, Infected): 94.1%
activity at 0.2 µM (HIV-1 [4]; Human immunodeficiency virus 1, Lymphocyte, dose 2.00 × 10^-7 Molar, read-out: Percent of Control, Infected): 47%
activity at 0.02 µM (HIV-1 [4]; Human immunodeficiency virus 1, Lymphocyte, dose 2.00 × 10^-8 Molar, read-out: Percent of Control, Infected): 10.7%
activity at 6.32 µM (HIV-1 [4]; Human immunodeficiency virus 1, Lymphocyte, dose 6.32 × 10^-6 Molar, read-out: Percent of Control, Infected): 96%
activity at 0.633 µM (HIV-1 [4]; Human immunodeficiency virus 1, Lymphocyte, dose 6.33 × 10^-7 Molar, read-out: Percent of Control, Infected): 100%
activity at 0.0634 µM (HIV-1 [4]; Human immunodeficiency virus 1, Lymphocyte, dose 6.34 × 10^-8 Molar, read-out: Percent of Control, Infected): 13.9%
activity at 0.00635 µM (HIV-1 [4]; Human immunodeficiency virus 1, Lymphocyte, dose 6.35 × 10^-9 Molar, read-out: Percent of Control, Infected): 4.64%
TI50 (IC/EC), Therapeutic Index (HIV-1 [4]; IC50/EC50): > 9.08 × 10^+1
IC50 ([5]; 144 h, uninfected CEM cells, 6 days, XTT, approximate values, read-out: IC50 (50% inhibitory concentration for cell growth)): > 20 µM
activity at 20 µM ([5]; dose 2.00 × 10^-5 Molar, read-out: Percent of Control, Uninfected): 85.5%
activity at 2 µM ([5]; dose 2.00 × 10^-6 Molar, read-out: Percent of Control, Uninfected): 85.6%
activity at 0.2 µM ([5]; dose 2.00 × 10^-7 Molar, read-out: Percent of Control, Uninfected): 85.2%
activity at 0.02 µM ([5]; dose 2.00 × 10^-8 Molar, read-out: Percent of Control, Uninfected): 92.2%
activity at 6.32 µM ([5]; dose 6.32 × 10^-6 Molar, read-out: Percent of Control, Uninfected): 91.5%
activity at 0.633 µM ([5]; dose 6.33 × 10^-7 Molar, read-out: Percent of Control, Uninfected): 86.4%
activity at 0.0634 µM ([5]; dose 6.34 × 10^-8 Molar, read-out: Percent of Control, Uninfected): 87.4%
activity at 0.00635 µM ([5]; dose 6.35 × 10^-9 Molar, read-out: Percent of Control, Uninfected): 88.5%
